Laboratory results published in the NIST ThermoML archive (doi:10.1021/je500977g).

Legend:
[1] = Liquid, Vibrating tube method
[2] = mn = molality of the nth substance listed, in mol/kg; conditions: Liquid, m2 = 0

O [water]
mass density [kg/m3], [1]
Conditions | 101 kPa | 10000 kPa | 25000 kPa | 50000 kPa | 75000 kPa | 100000 kPa
278.15 K | 999.96 | 1004.78 | 1011.88 | 1023.2 | 1033.92 | 1044.08
288.15 K | – | 1003.67 | 1010.42 | 1021.21 | 1031.47 | 1041.23
298.15 K | – | 1001.47 | 1007.99 | 1018.44 | 1028.38 | 1037.86
308.15 K | – | 998.36 | 1004.75 | 1014.97 | 1024.71 | 1034
323.15 K | 988.03 | 992.31 | 998.61 | 1008.68 | 1018.27 | 1027.42

O [water] + C[N+](C)(C)[O-]
mass density [kg/m3], [2]
Conditions | 278.15 K | 288.15 K | 298.15 K | 308.15 K | 323.15 K
101 kPa, Vibrating tube method | 999.96 | – | – | – | 988.03
10000 kPa, Constant-volume piezometry | 1004.78 | 1003.67 | 1001.47 | 998.36 | 992.31
25000 kPa, Constant-volume piezometry | 1011.88 | 1010.42 | 1007.99 | 1004.75 | 998.61
50000 kPa, Constant-volume piezometry | 1023.2 | 1021.21 | 1018.44 | 1014.97 | 1008.68
75000 kPa, Constant-volume piezometry | 1033.92 | 1031.47 | 1028.38 | 1024.71 | 1018.27
100000 kPa, Constant-volume piezometry | 1044.08 | 1041.23 | 1037.86 | 1034 | 1027.42
